± gives the expanded uncertainty stated by the source.
Assay: molar heat capacity at constant pressure
Details: 101.33 kPa, Metastable crystal, Vacuum adiabatic calorimetry

O=P([O-])([O-])[O-].[Tb+3] [terbium orthophosphate]
Details	molar heat capacity at constant pressure [J/K/mol]
7 K	0.2233 ± 0.014
8 K	0.3348 ± 0.019
8.48 K	0.404 ± 0.027
9 K	0.4742 ± 0.026
9.05 K	0.511 ± 0.033
9.71 K	0.655 ± 0.042
10 K	0.6496 ± 0.035
10.37 K	0.779 ± 0.049
11.05 K	0.934 ± 0.058
11.74 K	1.116 ± 0.069
12 K	1.115 ± 0.057
12.45 K	1.328 ± 0.082
13.16 K	1.551 ± 0.095
13.89 K	1.784 ± 0.11
14 K	1.738 ± 0.089
14.62 K	2.037 ± 0.12
15.36 K	2.349 ± 0.14
16 K	2.51 ± 0.13
16.12 K	2.666 ± 0.16
16.88 K	2.985 ± 0.18
17.64 K	3.316 ± 0.2
18 K	3.404 ± 0.17
18.41 K	3.69 ± 0.22
19.18 K	4.058 ± 0.24
19.96 K	4.44 ± 0.27
20 K	4.388 ± 0.22
21.2 K	5.035 ± 0.11
22.67 K	5.753 ± 0.12
24.17 K	6.522 ± 0.14
25 K	7.043 ± 0.14
25.69 K	7.302 ± 0.15
27.22 K	8.099 ± 0.17
28.76 K	8.951 ± 0.18
30 K	9.779 ± 0.2
30.31 K	9.817 ± 0.2
31.87 K	10.74 ± 0.22
33.44 K	11.64 ± 0.24
35 K	12.55 ± 0.26
35.02 K	12.43 ± 0.25
36.6 K	13.44 ± 0.27
38.18 K	14.4 ± 0.29
39.77 K	15.33 ± 0.31
40 K	15.41 ± 0.31
41.38 K	16.26 ± 0.2
42.98 K	17.22 ± 0.21
44.6 K	18.17 ± 0.23
45 K	18.37 ± 0.19
46.24 K	19.19 ± 0.24
47.86 K	20.2 ± 0.25
49.48 K	21.22 ± 0.26
50 K	21.44 ± 0.22
51.11 K	22.24 ± 0.27
52.74 K	23.26 ± 0.29
54.37 K	24.23 ± 0.3
55 K	24.56 ± 0.25
56 K	25.23 ± 0.31
57.64 K	26.25 ± 0.32
59.28 K	27.25 ± 0.33
60 K	27.69 ± 0.29
60.93 K	28.25 ± 0.35
62.57 K	29.31 ± 0.36
64.22 K	30.35 ± 0.37
65.88 K	31.35 ± 0.38
67.53 K	32.33 ± 0.4
69.19 K	33.27 ± 0.41
70 K	33.8 ± 0.35
71.05 K	34.29 ± 0.42
73.13 K	35.52 ± 0.43
75.2 K	36.74 ± 0.45
77.26 K	38.04 ± 0.46
79.33 K	39.29 ± 0.48
80 K	39.56 ± 0.4
81.4 K	40.39 ± 0.49
83.47 K	41.31 ± 0.5
83.73 K	41.32 ± 0.5
85.54 K	42.27 ± 0.52
85.78 K	42.39 ± 0.52
87.61 K	43.75 ± 0.53
87.83 K	43.95 ± 0.54
89.69 K	44.86 ± 0.55
89.89 K	45.03 ± 0.55
90 K	44.91 ± 0.48
91.76 K	45.8 ± 0.58
91.94 K	46.03 ± 0.58
93.84 K	46.75 ± 0.59
94 K	47.04 ± 0.59
95.93 K	47.75 ± 0.6
96.06 K	48.09 ± 0.6
98.01 K	48.74 ± 0.61
98.12 K	49.05 ± 0.61
100 K	49.89 ± 0.53
100.09 K	49.85 ± 0.62
100.18 K	50.06 ± 0.63
102.79 K	51.27 ± 0.64
102.86 K	51.16 ± 0.64
106.14 K	52.71 ± 0.66
109.43 K	54.24 ± 0.68
110 K	54.53 ± 0.57
112.71 K	55.74 ± 0.69
116.01 K	57.18 ± 0.71
119.3 K	58.57 ± 0.73
120 K	58.89 ± 0.62
122.6 K	59.95 ± 0.74
125.9 K	61.32 ± 0.76
129.2 K	62.65 ± 0.77
130 K	63 ± 0.66
132.49 K	63.94 ± 0.79
135.79 K	65.24 ± 0.81
139.09 K	66.54 ± 0.82
140 K	66.91 ± 0.7
142.39 K	67.77 ± 0.84
145.69 K	69.04 ± 0.85
148.98 K	70.3 ± 0.87
150 K	70.62 ± 0.73
152.28 K	71.55 ± 0.88
155.57 K	72.72 ± 0.89
158.87 K	73.84 ± 0.91
160 K	74.17 ± 0.77
162.16 K	74.93 ± 0.92
165.45 K	76.02 ± 0.93
168.73 K	77.12 ± 0.95
170 K	77.56 ± 0.8
172.02 K	78.29 ± 0.96
175.28 K	79.23 ± 0.97
178.56 K	80.19 ± 0.98
180 K	80.8 ± 0.83
181.84 K	81.29 ± 1
185.11 K	82.39 ± 1
188.38 K	83.45 ± 1
190 K	83.89 ± 0.86
191.65 K	84.37 ± 1
194.92 K	85.28 ± 1
198.18 K	86.29 ± 1.1
200 K	86.85 ± 0.89
201.43 K	87.36 ± 1.1
205.1 K	88.44 ± 1.1
209.15 K	89.46 ± 1.1
210 K	89.66 ± 0.92
213.21 K	90.54 ± 1.1
217.26 K	91.68 ± 1.1
220 K	92.36 ± 0.95
221.31 K	92.89 ± 1.1
225.34 K	93.96 ± 1.1
229.34 K	95.06 ± 1.2
230 K	94.92 ± 0.97
233.27 K	95.82 ± 1.2
237.28 K	96.8 ± 1.2
240 K	97.37 ± 1
241.28 K	97.76 ± 1.2
245.26 K	98.58 ± 1.2
249.23 K	99.5 ± 1.2
250 K	99.7 ± 1
253.16 K	100.4 ± 1.2
257.1 K	101.2 ± 1.2
260 K	101.9 ± 1
260.99 K	102.1 ± 1.2
264.86 K	102.9 ± 1.3
268.76 K	103.8 ± 1.3
270 K	104 ± 1.1
272.6 K	104.6 ± 1.3
276.41 K	105.3 ± 1.3
280 K	106 ± 1.1
280.2 K	105.9 ± 1.3
283.96 K	106.6 ± 1.3
287.7 K	107.3 ± 1.3
290 K	107.9 ± 1.1

— the NIST ThermoML archive (doi:10.1016/j.tca.2016.08.008)
